Results on four compounds are retold here after US7700576B2, “Pharmaceutical composition on basis of reverse transcriptase inhibitor and meldonium” (priority 2005, dated 2010).

The test system of one data set is myocardium. Set-up: species or system mice. Particulars: mouse, in vivo, ip. As to the method: The cardiotoxic action of Zidovudine and Meldonium pharmaceutical compositions was investigated by introducing them into male mice of initial mass 15.69±1.56 g during a fortnight. Throughout the experiment, the animals were kept in standard laboratory conditions at temperature of 22±0.5° C. and 12 hours light/darkness cycle, being fed with standard laboratory animal food. For the control group (n=6), 10 ml of 0.9% NaCl aqueous solution was intraperitoneally introduced daily (1st and 12th group). In a series of experiments, the following solutions were administered intraperitoneally for animal trial groups (including 6 mice each) daily. On the 15th day of the trial, the animals were decapitated, hearts were taken out and placed into 10% formalin solution. For immuno-histochemical research, organs were fixed in paraffin, and preparations of 4 μm thickness were sliced which were tinged according to the avidin-biotin immuno-histochemical method by use of DAKO LSAB reagent kit.

The test system of a further data set is cerebral cortex neurons. The data set can be described thus: Cerebral cortex neuron degenerative transformation (molecular and external granule layers). Conditions: after a fortnight. The data set is classed as in vivo, mice.
For data set [1] the following is noted: mouse, in vivo.
Procedure: (§1) For this purpose in an experiment of analogous pattern, the experimental animals' neurological reactions were assessed after a fortnight. For this assessment, the common test of pain latent period in the tail compression model as well as the appraisal of cerebral cortex neuron degenerative transformation was made (molecular and external granule layers).
Another data set has as its system mice. Conditions: p.o. for mice; cited from earlier work.
For data set [2] the following is noted: oral introduction; cited from earlier work.

Procedure for cerebral cortex neurons: as §1

As to `Cc1cn([C@H]2C[C@H](N=[N+]=[N-])[C@@H](CO)O2)c(=O)[nH]c1=O` [AZT, 3′-Azido-3′-deoxythymidine], in the data set on myocardium, the “Histological changes of heart tissue” value is “induces perivascular oedema, degeneration of myocardium adipose tissue and infiltration with leucocytes”. The “Increase in degenerated neurons of the cerebral cortex as compared with the control” value (“Increase in degenerated neurons” for short) in the data set with cerebral cortex neurons is listed as 3 fold. Besides, the “Algesia (pain latent period, tail compression)” value (“Algesia” below) in data set [1] is “provokes significant algesia”.

Turning to `Nc1ccn([C@@H]2CS[C@H](CO)O2)c(=O)n1` [Lamivudine, (2R-cis)-4-Amino-1-[2-(hydroxymethyl)-1,3-oxathiolan-5-yl]-2(IH)-pyrimidinone], the “Increase in degenerated neurons” value in the data set on cerebral cortex neurons is 3 fold. In addition, the “Algesia” value in data set [1] is on record as “provokes significant algesia”.

Take `C[N+](C)(C)NCCC(=O)[O-]` [Meldonium, 3-(2,2,2-Trimethylhydrazinium) propionate]: the toxicity entry in the data set with mice is “more than 25,000 mg/kg”. In data set [2], the bioavailability entry is given as “very high”.

For the compound `Cc1cn([C@H]2C=C[C@@H](CO)O2)c(=O)[nH]c1=O` [Stavudine, 2′,3′-Didehydro-3′-deoxythymidine], in the data set with myocardium, the “Histological changes of heart tissue” value is “induces perivascular oedema, degeneration of myocardium adipose tissue and infiltration with leucocytes”. Moreover, in the data set with cerebral cortex neurons, the “Increase in degenerated neurons” value is given as 3 fold. Moreover, the “Algesia” value in data set [1] was “provokes significant algesia”.
